Legend:
Format in all cases: cell-based, human
Pancreatic CSCs [1] = experiment: apoptosis
Method: (A and B) Induction of apoptosis and activation of caspase-3/-7. Pancreatic CSCs were treated with rottlerin (0-2 μM) for 48 h, and apoptosis and caspase-3/-7 activity were measured by […] and colorometric assay, respectively. […] (C) Pancreatic CSCs were treated with rottlerin (0-1 μM) for 48 h, and the expression of Bcl-2, XIAP and Survivin was measured by qRT-PCR and normalized to GAPDH.
(§1) (A) Pancreatic CSCs were treated with SAHA (3 and 5 μM) and 5-Aza-dc (2 and 4 μM) and cell viability was measured at 48 h by staining with trypan blue using Vi-CELL analyzer (Beckman Counter). (B) Pancreatic CSCs were untreated (a) or treated with SAHA (b) or 5-Aza-dC (c) for 48 h, and apoptosis was measured by staining with annexin-PI using Accuri Flow Cytometer. (C) Caspase-3/7 activity was measured in pancreatic CSCs treated with SAHA (0.5 and 2 μM) or 5-Aza-dC (1 and 3 μM) for 25 h.
(A) Regulation of caspase-3/7 activity by EGCG. CSCs were treated with EGCG (0-60 μM) for 24 h, and caspase-3/7 activity was measured as per manufacturer's instructions. […] (B) Regulation of apoptosis by EGCG. CSCs were treated with EGCG (0-60 μM) for 48 h, and apoptosis was measured by TUNEL assay. […] (C) Regulation of apoptosis-related proteins. Pancreatic CSCs were treated with EGCG (0-60 μM) for 36 h. Real time PCR (q-RT-PCR) was performed to examine the expression of Bcl-2, survivin, XIAP, and GAPDH.
FIG. 42A and FIG. 42B show graphs showing quercetin synergizes with EGCG to inhibit self-renewal capacity, invasion, migration, and TCF/LEF and Gli transcriptional activities in pancreatic CSCs. (A) Effects of EGCG and quercetin on spheroid and colony formation. Upper Panel, uercetin synergizes with EGCG to inhibit spheroid's cell viability. CSCs were seeded in suspension and treated with EGCG (0-60 μM) with or without quercetin (20 μM) for 7 days. At the end of incubation period, all the spheroids were collected and resuspended. Cell viability was measured by trypan blue assay. […] Lower panel, uercetin synergizes with EGCG to inhibit colony formation. Pancreatic CSCs were seeded in soft agar and treated with various doses of EGCG (0-60 μM) with or without quercetin (20 μM) and incubated at […] for 21 days. At the end of incubation period, colonies were counted. […] (B) Effects of EGCG and quercetin on invasion and migration. Upper panel, Matrigel invasion assay. CSCs were plated onto the Matrigel-coated membrane in the top chamber of the transwell and treated with EGCG (0-60 μM) with or without quercetin (20 μM) for 48 hrs. Cells invaded to the lower chambered were fixed with methanol, stained with crystal violet and counted. […] Lower panel, Transwell migration assay. Pancreatic CSCs were plated in the top chamber of the transwell and treated with EGCG (0-60 μM) with or without quercetin (20 μM) for 48 hrs. Cells migrated to the lower chambered were fixed with methanol, stained with crystal violet and counted. […] (C) Quercetin synergizes with EGCG to induce apoptosis. CSCs were seeded in suspension and treated with EGCG (0-60 μM) with or without quercetin (20 μM) for 7 days. At the end of incubation period, all the spheroids were collected. Apoptosis was measured by TUNEL assay. […] (D) Effects of EGCG and quercetin on TCF/LEF and Gli transcriptional activities. Pancreatic CSCs were transduced with either lentivirus encoding TCF/LEF responsive GFP and luciferase genes or Gli-responsive GFP and luciferase genes. Transduced CSCs were treated with EGCG (40 μM) with or without quercetin (20 μM) for 48 hrs and the luciferase activity was measured.
Pancreatic CSCs were (a) untreated, (b) treated with SAHA, or (c) treated with 5-Aza-dC for 48 hours and apoptosis was measured by staining with annexin-PI using Accuri Flow Cytometer. The results of those studies are illustrated in FIG. 31B.

Pancreatic CSCs [2] = experiment: cell viability, trypan blue, Vi-CELL analyzer; conditions: 3 days
Method: Pancreatic CSCs were treated with resveratrol (0-20 μM), curcumin (0-20 μM), honokiol (0-20 μM) and diallyl trisulphide (0-20 μM) for 3 days, and cell viability was measured by staining with trypan blue using Vi-CELL analyzer (Beckman Counter).
Pancreatic CSCs were treated with sulforaphane (0-20 μM), rottlerin (0-2 μM), EGCG (0-60 μM) and embelin (0-5 μM) for 3 days, and cell viability was measured by staining with trypan blue using Vi-CELL analyzer (Beckman Counter).
as §1
Pancreatic CSCs were treated with resveratrol (0-20 μM), curcumin (0-20 μM), honokiol (0-20 μM), and diallyl trisulphide (0-20 μM) for 3 days and cell viability was measured by staining with trypan blue using Vi-CELL analyzer. The results of those studies are illustrated in FIG. 27.
Pancreatic CSCs were treated with sulforaphane (0-20 μM), rottlerin (0-2 μM), EGCG (0-60 μM), and embelin (0-5 μM) for 3 days and cell viability was measured by staining with trypan blue using Vi-CELL analyzer. The results of those studies are illustrated in FIG. 28.
Pancreatic CSCs were treated with SAHA […] Vorinostat (3 and 5 μM) and 5-Aza-2′-deoxycytidine (5-Aza-dC, 2 and 4 μM) and cell viability was measured at 48 hours by staining with trypan blue using Vi-CELL analyzer. The results of those studies are illustrated in FIG. 31A.

Prostate CSCs = experiment: cell viability, trypan blue, Vi-CELL analyzer; conditions: 3 days
Method: Prostate CSCs were treated with resveratrol (0-20 μM), curcumin (0-20 μM), honokiol (0-20 μM) and diallyl trisulphide (0-10 μM) for 3 days, and cell viability was measured by staining with trypan blue using Vi-CELL analyzer (Beckman Counter).
Prostate CSCs were treated with sulforaphane (0-20 μM), rottlerin (0-5 μM), EGCG (0-40 μM) and embelin (0-1 μM) for 3 days, and cell viability was measured by staining with trypan blue using Vi-CELL analyzer (Beckman Counter).
Prostate CSCs were treated with resveratrol (0-20 μM), curcumin (0-20 μM), honokiol (0-20 μM), and diallyl trisulphide (0-10 μM) for 3 days and cell viability was measured by staining with trypan blue using Vi-CELL analyzer. The results of those studies are illustrated in FIG. 25.
Prostate CSCs were treated with sulforaphane (0-20 μM), rottlerin (0-5 μM), EGCG (0-40 μM), and embelin (0-1 μM) for 3 days and cell viability was measured by staining with trypan blue using Vi-CELL analyzer. The results of those studies are illustrated in FIG. 26.

[3] = EGCG 0-60 μM with or without quercetin 20 μM, 7 days, spheroids, TUNEL assay

O=C(O[C@@H]1Cc2c(O)cc(O)cc2O[C@@H]1c1cc(O)c(O)c(O)c1)c1cc(O)c(O)c(O)c1 [EGCG, epigallocatechin gallate]
apoptosis (Pancreatic CSCs [1]; [3]): induced apoptosis | apoptosis (Pancreatic CSCs [1]; EGCG 0-60 μM, 48 h, TUNEL assay): induced caspase-3/7 activity and apoptosis in pancreatic CSCs in a dose-dependent manner | cell viability (Pancreatic CSCs [2]): inhibit cell viability | cell viability (Prostate CSCs): inhibit cell viability

O=c1c(O)c(-c2ccc(O)c(O)c2)oc2cc(O)cc(O)c12 [quercetin]
apoptosis (Pancreatic CSCs [1]; [3]): induced apoptosis

CC(=O)c1c(O)c(C)c(O)c(Cc2c(O)c3c(c(C(=O)/C=C/c4ccccc4)c2O)OC(C)(C)C=C3)c1O [rottlerin]
apoptosis (Pancreatic CSCs [1]; rottlerin 0-2 μM, 48 h): induced | cell viability (Pancreatic CSCs [2]): inhibit cell viability | cell viability (Prostate CSCs): inhibit cell viability

C[S+]([O-])CCCCN=C=S (stereo not shown) [sulforaphane]
cell viability (Pancreatic CSCs [2]): inhibit cell viability | cell viability (Prostate CSCs): inhibit cell viability

Reference: US20160374944A1, “COMPOSITIONS AND METHODS FOR TREATING AND PREVENTING CANCER BY TARGETING AND INHIBITING CANCER STEM CELLS” (priority 2011, published 2016)
